Measured values reported in ChEMBL document CHEMBL1909046, “DrugMatrix in vitro pharmacology data”.

Columns and labels:
Neutrophil elastase = target: T1, Neutrophil elastase (Homo sapiens, UniProt P08246); type: tissue-based;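 note: inhibition of neutrophil elastase enzyme activity, measured with a p-nitroanilide-linked peptide substrate; in other assays of this panel Not Active means under 50% inhibition at 10 µM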
T1 sequence (P08246 whole entry): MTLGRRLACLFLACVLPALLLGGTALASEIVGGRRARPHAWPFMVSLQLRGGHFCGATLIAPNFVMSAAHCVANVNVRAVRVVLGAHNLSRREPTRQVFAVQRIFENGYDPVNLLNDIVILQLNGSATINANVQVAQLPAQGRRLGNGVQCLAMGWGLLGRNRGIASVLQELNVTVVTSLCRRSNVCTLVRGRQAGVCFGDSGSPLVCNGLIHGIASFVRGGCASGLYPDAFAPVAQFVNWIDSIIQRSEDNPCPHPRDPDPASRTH

[1] = target: T2, Neuropeptide Y receptor type 2 (Homo sapiens, UniProt P49146); type: cell membranes, Membrane; details: kan-ts; note: in other assays of this panel Not Active means under 50% inhibition at 10 µM
T2 sequence (P49146 whole entry): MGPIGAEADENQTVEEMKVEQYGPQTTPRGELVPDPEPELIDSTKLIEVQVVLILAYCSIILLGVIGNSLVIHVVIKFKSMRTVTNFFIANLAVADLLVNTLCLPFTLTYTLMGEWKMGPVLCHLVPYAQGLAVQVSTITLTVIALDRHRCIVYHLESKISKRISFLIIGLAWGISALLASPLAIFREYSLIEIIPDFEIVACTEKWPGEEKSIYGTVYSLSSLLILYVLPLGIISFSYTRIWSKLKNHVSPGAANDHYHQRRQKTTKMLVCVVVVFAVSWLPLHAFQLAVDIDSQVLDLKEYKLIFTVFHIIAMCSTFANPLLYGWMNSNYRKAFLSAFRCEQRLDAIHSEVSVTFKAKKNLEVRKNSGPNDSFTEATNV

[2] = target: T3, Alpha-2C adrenergic receptor (Homo sapiens, UniProt P18825); test: DRUGMATRIX: Adrenergic Alpha-2C radioligand binding (ligand: [3H] MK-912); type: cell membranes, Sf9, Membrane; details: sf9
T3 sequence (P18825 whole entry): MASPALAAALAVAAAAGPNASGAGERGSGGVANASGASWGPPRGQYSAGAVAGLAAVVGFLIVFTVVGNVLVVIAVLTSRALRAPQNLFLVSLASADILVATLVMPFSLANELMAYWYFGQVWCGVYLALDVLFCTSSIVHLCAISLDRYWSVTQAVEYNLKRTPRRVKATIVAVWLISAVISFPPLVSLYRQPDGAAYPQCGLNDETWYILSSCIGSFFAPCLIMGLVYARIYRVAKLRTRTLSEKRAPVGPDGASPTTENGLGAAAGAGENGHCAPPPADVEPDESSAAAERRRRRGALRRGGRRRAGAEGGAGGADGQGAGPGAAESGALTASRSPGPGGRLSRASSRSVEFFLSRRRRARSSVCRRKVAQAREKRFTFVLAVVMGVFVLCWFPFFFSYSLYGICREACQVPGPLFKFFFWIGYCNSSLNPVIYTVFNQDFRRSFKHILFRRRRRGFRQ

[3] = DRUGMATRIX: Calcium Channel Type L, Benzothiazepine radioligand binding (ligand: [3H] Diltiazem); type: cell membranes, Rattus norvegicus, Wistar, Brain, Membrane; details: Not Active = under 50% inhibition at 10 µM
[4] = target: T4, C-C chemokine receptor type 4 (Homo sapiens, UniProt P51679); type: cell membranes, Chem-1, Membrane; details: chem-1; note: in other assays of this panel Not Active means under 50% inhibition at 10 µM
T4 sequence (P51679 whole entry): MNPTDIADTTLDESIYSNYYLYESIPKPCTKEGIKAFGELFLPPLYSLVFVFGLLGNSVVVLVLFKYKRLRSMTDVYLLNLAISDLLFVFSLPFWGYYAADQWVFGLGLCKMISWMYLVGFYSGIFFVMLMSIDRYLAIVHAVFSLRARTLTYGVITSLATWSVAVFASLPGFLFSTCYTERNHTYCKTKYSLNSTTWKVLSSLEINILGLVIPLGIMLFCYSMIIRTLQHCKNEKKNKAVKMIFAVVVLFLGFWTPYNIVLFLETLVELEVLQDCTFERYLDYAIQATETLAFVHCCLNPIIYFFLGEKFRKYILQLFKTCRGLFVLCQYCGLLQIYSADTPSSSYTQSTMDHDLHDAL

[5] = target: T5, Polyunsaturated fatty acid lipoxygenase ALOX15 (Oryctolagus cuniculus, UniProt P12530); test: biochemical; type: tissue-based, Reticulocytes;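 note: inhibition of 15-lipoxygenase enzyme activity measured with linoleic acid as the substrate; in other assays of this panel Not Active means under 50% inhibition at 10 µM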
T5 sequence (P12530 whole entry): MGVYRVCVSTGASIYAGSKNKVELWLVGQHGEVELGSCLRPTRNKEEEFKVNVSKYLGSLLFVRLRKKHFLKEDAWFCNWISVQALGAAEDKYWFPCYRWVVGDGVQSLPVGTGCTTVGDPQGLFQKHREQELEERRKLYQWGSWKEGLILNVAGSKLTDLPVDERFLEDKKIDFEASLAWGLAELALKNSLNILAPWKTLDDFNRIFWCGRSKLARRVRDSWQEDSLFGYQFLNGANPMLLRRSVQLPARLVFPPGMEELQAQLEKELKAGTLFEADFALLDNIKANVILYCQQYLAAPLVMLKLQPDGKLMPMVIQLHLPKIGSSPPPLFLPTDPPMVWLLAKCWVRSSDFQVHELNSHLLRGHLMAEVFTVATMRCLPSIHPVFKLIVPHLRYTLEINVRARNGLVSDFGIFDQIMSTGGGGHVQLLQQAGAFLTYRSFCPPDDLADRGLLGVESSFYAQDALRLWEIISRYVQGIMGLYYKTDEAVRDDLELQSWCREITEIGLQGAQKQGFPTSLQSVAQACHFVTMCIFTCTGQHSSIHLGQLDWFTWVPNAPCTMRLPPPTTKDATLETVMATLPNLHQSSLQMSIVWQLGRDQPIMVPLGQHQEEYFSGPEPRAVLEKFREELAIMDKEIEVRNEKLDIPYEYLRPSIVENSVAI

[6] = target: Protein kinase C alpha type (Homo sapiens, UniProt P17252); type: cell-based; details: sf9

Compound | IC50 (Neutrophil elastase) | IC50 [1] | IC50 [2] | IC50 [3] | Ki [3] | IC50 [4] | IC50 ([5]; reticulocytes) | IC50 [6] | IC50 ([5]; read-out: IC50) [µM]
CC(C)C(=O)Nc1ccc([N+](=O)[O-])c(C(F)(F)F)c1 [FLUTAMIDE] | Not Active | Not Active | Not Active | Not Active | Not Active | Not Active | Not Active | Not Active | 
N=C(N)NCCN1CCCCCCC1 [GUANETHIDINE] | Not Active | Not Active | Not Active | Not Active | Not Active | Not Active | Not Active | Not Active | 
CC1(C)O[C@@H]2C[C@H]3[C@@H]4CCC5=CC(=O)CC[C@]5(C)[C@@]4(F)[C@@H](O)C[C@]3(C)[C@]2(C(=O)CCl)O1 [HALCINONIDE] | Not Active | Not Active | Not Active | Not Active | Not Active | Not Active | Not Active | Not Active | 
O=c1[nH]c(=O)n([C@H]2C[C@H](O)[C@@H](CO)O2)cc1I [IDOXURIDINE] | Not Active | Not Active | Not Active | Not Active | Not Active | Not Active | Not Active | Not Active | 
CC1Cc2ccccc2N1NC(=O)c1ccc(Cl)c(S(N)(=O)=O)c1 (stereo not given) [INDAPAMIDE] | Not Active | Not Active | Not Active | Not Active | Not Active | Not Active |  | Not Active | 2.92
Nc1nc(N)nc(-c2cc(Cl)ccc2Cl)n1.O=C(O)/C=C\C(=O)O [IRSOGLADINE MALEATE] | Not Active | Not Active | Not Active | Not Active | Not Active | Not Active | Not Active | Not Active | 
CCC(C)n1ncn(-c2ccc(N3CCN(c4ccc(OCC5COC(Cn6cncn6)(c6ccc(Cl)cc6Cl)O5)cc4)CC3)cc2)c1=O (stereo not given) [ITRACONAZOLE] | Not Active | Not Active | Not Active | Not Active | Not Active | Not Active | Not Active | Not Active | 
CCCCN1CCCC[C@H]1C(=O)Nc1c(C)cccc1C [LEVOBUPIVACAINE] | Not Active | Not Active | Not Active | Not Active | Not Active | Not Active | Not Active | Not Active | 
CCCCc1nc(Cl)c(CO)n1Cc1ccc(-c2ccccc2-c2nnn[nH]2)cc1 [LOSARTAN] | Not Active | Not Active | Not Active | Not Active | Not Active | Not Active | Not Active | Not Active | 
Sc1ncnc2nc[nH]c12 [MERCAPTOPURINE ANHYDROUS] | Not Active | Not Active | Not Active | Not Active | Not Active | Not Active | Not Active | Not Active | 
